Test results taken from patent US8163769B2, “Antibacterial compounds” (Abbott Laboratories, priority 2002, dated 2012).

Molecular target: bacterial protein synthesis (S30 extract from quinolone-succeptable Streptococcus pneumoniae ATCC 46919)
Assay: Translation assay, firefly luciferase reporter system with S30 Streptococcus pneumoniae extract
Format: biochemical
Settings: cell-free S30 Streptococcus pneumoniae extract, luciferase mRNA; read-out: IC50, concentration which caused 50% inhibition of bacterial protein synthesis
Method: Bacterial protein synthesis inhibitory activity of the compounds and the aformentioned commercially-available antibacterials was determined by translation assays performed using the firefly luciferase reporter system described by Murray et al., (2001), “Staphylococcus aureus Cell Extract Transcription-Translation Assay: Firefly Luciferase Reporter System for Evaluating Protein Translation Inhibitors,” Antimicrob. Agents Chemother. 45(6): 1900-1904, replacing the Staphylococcus aureus S30 extract described therein with S30 Streptococcus pneumoniae extract from quinolone-succeptable Streptococcus pneumoniae ATCC 46919, and replacing plasmid coding for the luciferase gene with mRNA (encoding produced by in vitro transcription from the plasmid pAS10rbs3) which encoded the luciferase gene with an upstream Streptococcus pneumoniae promoter and Shine-Dalgarno site.

With CC(=O)NC[C@H]1CN(c2ccc(N3CCOCC3)c(F)c2)C(=O)O1 [Linezolid] the IC50 was ~3 µM.
